The source of these data is BindingDB's records for doi:10.1021/jm8011905 (National Taiwan University, 2009).

The assay addresses Genome polyprotein (Hepatitis C virus genotype 1b (isolate Taiwan), UniProt P29846). Kind of assay: Fluorescence Resonant Energy Transfer (FRET) Helicase Assay. The settings on record: pH 7; 22 °C. As for the experimental part:
The enzyme was assayed the DNA helicase activity by using DNA substrate (annealed BHQ1-labeled release strand and FITC-labeled template strand) in the presence of test compound. The substrate was monitored by the fluorescence quenching of FITC. The assay mixture was added to a 384-well microplate and monitored continuously at an excitation of 485 nm and an emission of 518 nm using a Fluoroskan Ascent microplate fluorescence reader (LabSystems, VA). The original data were normalized by the formula of relative helicase activity (%). When the inhibition of helicase activity was more than 50% at a concentration of 100 uM, the IC50 values were determined by curve fitting using SigmaPlot2000 of logistic with three parameters.

SMILES strings stand for the structures.

Sequence of Genome polyprotein (P29846 1027-1657 limits assumed): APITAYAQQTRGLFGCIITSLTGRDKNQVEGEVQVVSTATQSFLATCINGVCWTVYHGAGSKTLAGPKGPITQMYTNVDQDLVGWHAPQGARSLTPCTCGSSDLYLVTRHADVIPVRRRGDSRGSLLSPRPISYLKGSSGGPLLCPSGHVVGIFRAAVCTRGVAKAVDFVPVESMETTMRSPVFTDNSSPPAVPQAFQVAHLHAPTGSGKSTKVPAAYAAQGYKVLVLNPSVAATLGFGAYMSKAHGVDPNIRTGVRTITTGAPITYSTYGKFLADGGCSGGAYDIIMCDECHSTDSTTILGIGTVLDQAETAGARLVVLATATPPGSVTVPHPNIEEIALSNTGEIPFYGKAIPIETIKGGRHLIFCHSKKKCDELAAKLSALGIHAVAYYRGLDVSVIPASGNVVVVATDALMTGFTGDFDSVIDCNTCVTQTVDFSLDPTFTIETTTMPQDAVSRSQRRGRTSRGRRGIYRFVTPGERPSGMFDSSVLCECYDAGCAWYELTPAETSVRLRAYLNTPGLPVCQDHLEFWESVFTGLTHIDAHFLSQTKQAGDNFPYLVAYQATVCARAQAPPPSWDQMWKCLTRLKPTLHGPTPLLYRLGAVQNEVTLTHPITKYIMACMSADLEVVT

As a reminder, the IC50 is the concentration at which inhibition is half-maximal. Turning to `O=S(=O)(O)c1ccc(Nc2ccc([C+](c3ccc(Nc4cccc(S(=O)(=O)O)c4)cc3)c3ccc(Nc4cccc(S(=O)(=O)O)c4)cc3)cc2)cc1` [BHT, 1], the half-inhibitory concentration (IC50) stood at 40 µM.
